Experimental data as given in US10344034B2, “Pyrazolopyrimidone or Pyrrolotriazone derivatives, method of preparing same, and pharmaceutical applications thereof” (Shanghai Hengrui Pharmaceutical Co., Ltd., priority 2013, dated 2019).

Experiments:
human GnRHr = human GnRHr (Homo sapiens (Human), UniProt P30968); experiment: Human GnRHr (GnRH receptor) activity assay, Fluo-4 calcium signal in Human GnRHr/CHO stably transfected cell lines; assay type: cell-based; conditions: Human GnRHr/CHO cells, GnRH polypeptide stimulant
human GnRHr, sequence (P30968 whole entry): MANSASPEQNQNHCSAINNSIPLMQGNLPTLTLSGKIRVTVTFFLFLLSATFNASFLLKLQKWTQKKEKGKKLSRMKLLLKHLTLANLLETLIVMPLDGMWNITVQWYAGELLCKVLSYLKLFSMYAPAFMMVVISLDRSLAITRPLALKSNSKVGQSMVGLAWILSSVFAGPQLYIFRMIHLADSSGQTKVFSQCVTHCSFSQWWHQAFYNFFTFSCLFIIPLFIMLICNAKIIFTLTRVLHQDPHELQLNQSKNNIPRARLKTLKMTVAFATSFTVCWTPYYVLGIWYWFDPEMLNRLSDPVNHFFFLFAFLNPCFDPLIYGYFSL
Procedure: Test Example 1. Human GnRHr (GnRH Receptor) Activity Assay of the Present Compounds.
In vitro GnRHr protein activity was tested by the following methods.
This assay was used to determine the inhibition effect of the present compound on the activity of human GnRHr protein expressed by Human GnRHr/CHO stably transfected cell lines.
A mammalian expression vector containing the human GnRHr gene was transferred into CHO cells by adding Lipofectamine® LTX reagent containing Plus™. Antibiotics were added the next day for screening to pick out the monoclonal cell lines.
(§1) The Human GnRHr/CHO stably transfected cell lines were inoculated in 96-well plates with an inoculation density of 25,000 cells/well. The culture medium was removed the next day, and loading buffer containing Fluo-4 dye was added to the plate (100 μL/well) and incubated for 30 minutes at 37° C. The plate was moved to room temperature and equilibrated for 10 minutes. Each compound was diluted with DMSO to seven concentration gradients of 100 μM, 10 μM, 1 μM, 0.1 μM, 0.01 μM, 0.001 μM, 0.0001 μM. Then, 1 μl of each gradient was added to each well and incubated for 10 minutes at room temperature. After automated addition of 50 μL of GnRH polypeptide stimulant solution, the value was immediately detected at 494/516 nM by a microplate reader (flexstation 3). IC50 values of the compounds were calculated by software from different fluorescence signals at various corresponding concentrations.
The inhibitory activity of the present compounds on human GnRHr was determined by the above assay, and IC50 values are shown in Table 1.

[1] = Rat pharmacokinetics assay; assay type: in vivo, Sprague-Dawley (SD) rats; conditions: both sexes, Sprague-Dawley, plasma, oral 10 mg/kg; for Vd/F: read-out: Apparent volume of distribution Vz/F; for AUC: read-out: Area under curve AUC; for CL/F: read-out: Clearance rate CL/F; for half-life: read-out: Half-life T1/2 (converted); for Cmax: read-out: Plasma concentration Cmax; for MRT: read-out: Residence time MRT
Procedure: Test Example 4. Rat pharmacokinetics assay of the compounds of Example 2, Example 3, Example 5, Example 9, Example 10, Example 11, and Example 13 of the present invention.
Sprague-Dawley (SD) rats were used as test animals. The plasma concentrations at various times were determined by LC/MS/MS after intragastric administration of compounds of Example 2, Example 3, Example 5, Example 9, Example 10, Example 11, and Example 13, and intravenous administration of the compound of Example 11 to the rats. The pharmacokinetic behavior of the present compounds in rats was studied, and the pharmacokinetic features were evaluated.
Thirty-two (32) healthy adult SD rats (half female and half male) were evenly designated into 8 groups (4 for each group). The animals were purchased from Shanghai Super B&K Laboratory Animal Corp. Ltd (laboratory animal production Certificate No. SCXK (HU)2008-0016).
An appropriate amount of sample was weighed, and added with 0.5% CMC-Na to form a 1 mg/ml suspension upon ultrasonic treatment.
Appropriate amounts of drugs were weighed, and dissolved with 0.5 ml DMSO and 0.5 ml of Tween 80. Saline solution was added to the final volume.
Thirty-two (32) SD rats (half female and half male) were evenly designated into 8 groups (4 for each group), and administered by oral gavage or intravenous injection (i.v.) (oral gavage at a dosage of 10 mg/kg or 30 mg/kg, and i.v. at a dosage of 5.0 mg/kg), respectively, at a volume of 10 ml/kg after fasting overnight.
0.1 ml of blood was sampled before, and 0.5, 1, 2, 4, 6, 8, 11, and 24 hours after administration, collected in a heparinized test tube, and centrifuged at 3500 rpm for 10 minutes to separate the plasma, which was stored at −20° C. The animals were allowed access to feed 2 hours after administration.
The content of the test compound in the plasma of rats after administration of the compound by oral gavage was determined by LC/MS/MS.

rabbit GnRHr = rabbit GnRHr (Oryctolagus cuniculus, UniProt Q5U7L3); experiment: Rabbit GnRHr inhibitory activity assay, rabbit GnRHr/CHO stably transfected cell lines; assay type: cell-based; conditions: rabbit GnRHr/CHO cells, GnRH polypeptide stimulant, Fluo-4
rabbit GnRHr, sequence (Q5U7L3 1-328): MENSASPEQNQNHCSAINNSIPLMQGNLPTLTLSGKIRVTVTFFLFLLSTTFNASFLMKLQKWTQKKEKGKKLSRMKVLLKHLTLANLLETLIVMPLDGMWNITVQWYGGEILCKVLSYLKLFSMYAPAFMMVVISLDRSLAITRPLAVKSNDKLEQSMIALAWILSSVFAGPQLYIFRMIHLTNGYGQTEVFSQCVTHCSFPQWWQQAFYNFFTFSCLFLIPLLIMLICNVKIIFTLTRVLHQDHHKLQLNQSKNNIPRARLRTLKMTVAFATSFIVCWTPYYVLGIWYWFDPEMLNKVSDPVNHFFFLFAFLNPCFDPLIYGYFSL
Procedure: Test Example 3. Rabbit GnRHr Inhibitory Activity Assay of the Present Compounds
This assay was used to determine the inhibition effect of the present compounds on the activity of rabbit GnRHr protein expressed by rabbit GnRHr/CHO stably transfected cell lines.
A mammalian expression vector containing the rabbit GnRHr gene was transferred into CHO cells by adding Lipofectamine® LTX reagent containing Plus™. Antibiotics were added the next day for screening to pick out the monoclonal cell lines.
as §1, with “rabbit” for “Human”, “494/516n M” for “494/516 nM”
The inhibitory activity of the present compounds on rabbit GnRHr was determined by the above assay, and IC50 values are shown in Table 1.

IC50 (human GnRHr) | Vd/F [1] | AUC [1] | CL/F [1] | half-life [1] | Cmax [1] | MRT [1] | Compound | IC50 (rabbit GnRHr)
0.9 nM | 96.2 ± 42.2 L/kg | 1.07 ± 0.472 µg·h/mL | 10.9 ± 4.74 L/h/kg | 6.17 ± 0.79 h | 0.237 ± 0.158 µg/mL | 6.42 ± 1.39 h | CCNC(=O)Nc1ccc(-n2nc3c(c2CN(C)C)c(=O)n(-c2cccc(OC)c2F)c(=O)n3Cc2c(F)cccc2F)cc1 [Example 3, 1-(4-(7-(2,6-difluorobenzyl)-3-((dimethylamino)methyl)-5-(2-fluoro-3-methoxyphenyl)-4,6-dioxo-4,5,6,7-tetrahydro-2H-pyrazolo[3,4-d]pyrimidin-2-yl)phenyl)-3-ethylurea] | 
0.92 nM | 231 ± 234 L/kg | 0.389 ± 0.298 µg·h/mL | 54.9 ± 62.8 L/h/kg | 3.31 ± 0.57 h | 0.103 ± 0.064 µg/mL | 4.48 ± 0.7 h | CCNC(=O)Nc1ccc(-c2cn3c(c2CN(C)C)c(=O)n(-c2cccc(OC)c2F)c(=O)n3Cc2c(F)cccc2F)cc1 [Example 13, 1-(4-(1-(2,6-difluorobenzyl)-5-((dimethylamino)methyl)-3-(2-fluoro-3-methoxyphenyl)-2,4-dioxo-1,2,3,4-tetrahydropyrrolo[2,1-f][1,2,4]triazin-6-yl)phenyl)-3-ethylurea] | 
0.66 nM | 30.3 ± 14.4 L/kg | 1.24 ± 0.593 µg·h/mL | 10.1 ± 5.7 L/h/kg | 2.29 ± 0.84 h | 0.598 ± 0.431 µg/mL | 2.96 ± 0.17 h | CCNC(=O)Nc1ccc(-n2nc3c(c2CN(C)C)c(=O)n(-c2ccc(OC)nn2)c(=O)n3Cc2c(F)cccc2F)cc1 [Example 10, 1-(4-(7-(2,6-difluorobenzyl)-3-((dimethylamino)methyl)-5-(6-methoxypyridazin-3-yl)-4,6-dioxo-4,5,6,7-tetrahydro-2H-pyrazolo[3,4-d]pyrimidin-2-yl)phenyl)-3-ethylurea] | 
0.49 nM |  |  |  |  |  |  | CONC(=O)Nc1ccc(-n2nc3c(c2CN(C)C)c(=O)n(-c2cccc(OC)c2F)c(=O)n3Cc2c(F)cccc2C(F)(F)F)cc1 [Example 7, 1-(4-(3-((dimethylamino)methyl)-5-(2-fluoro-3-methoxyphenyl)-7-(2-fluoro-6-(trifluoromethyl)benzyl)-4,6-dioxo-4,5,6,7-tetrahydro-2H-pyrazolo[3,4-d]pyrimidin-2-yl)phenyl)-3-methoxyurea] | 
0.66 nM | 46.8 ± 39.2 L/kg | 1.29 ± 1.03 µg·h/mL | 14.8 ± 11.9 L/h/kg | 2.32 ± 0.65 h | 0.69 ± 0.66 µg/mL | 2.47 ± 0.75 h | CNC(=O)Nc1ccc(-n2nc3c(c2CN(C)C)c(=O)n(-c2cccc(OC)c2F)c(=O)n3Cc2c(F)cccc2F)cc1 [Example 5, 1-(4-(7-(2,6-difluorobenzyl)-3-((dimethylamino)methyl)-5-(2-fluoro-3-methoxyphenyl)-4,6-dioxo-4,5,6,7-tetrahydro-2H-pyrazolo[3,4-d]pyrimidin-2-yl)phenyl)-3-methylurea] | 
0.43 nM |  |  |  |  |  |  | CONC(=O)Nc1ccc(-c2cn3c(c2CN(C)C)c(=O)n(-c2cccc(OC)c2F)c(=O)n3Cc2c(F)cccc2F)cc1 [Example 15, 1-(4-(1-(2,6-difluorobenzyl)-5-((dimethylamino)methyl)-3-(2-fluoro-3-methoxyphenyl)-2,4-dioxo-1,2,3,4-tetrahydropyrrolo[2,1-f][1,2,4]triazin-6-yl)phenyl)-3-methoxyurea] | 
1.46 nM | 14.4 ± 10.5 L/kg | 1.55 ± 0.65 µg·h/mL | 7.26 ± 2.64 L/h/kg | 1.24 ± 0.54 h | 0.746 ± 0.493 µg/mL | 2.02 ± 0.67 h | CONC(=O)Nc1ccc(-n2nc3c(c2CN(C)C)c(=O)n(-c2cccc(OC)c2F)c(=O)n3Cc2c(F)cccc2F)cc1 [Example 2, 1-(4-(7-(2,6-difluorobenzyl)-3-((dimethylamino)methyl)-5-(2-fluoro-3-methoxyphenyl)-4,6-dioxo-4,5,6,7-tetrahydro-2H-pyrazolo[3,4-d]pyrimidin-2-yl)phenyl)-3-methoxyurea] | 
2.24 nM |  |  |  |  |  |  | CNC(=O)Nc1ccc(-n2nc3c(c2CN(C)C)c(=O)n(-c2ccc(OC)nn2)c(=O)n3Cc2c(F)cccc2C(F)(F)F)cc1 [Example 12, 1-(4-(3-((dimethylamino)methyl)-7-(2-fluoro-6-(trifluoromethyl)benzyl)-5-(6-methoxypyridazin-3-yl)-4,6-dioxo-4,5,6,7-tetrahydro-2H-pyrazolo[3,4-d]pyrimidin-2-yl)phenyl)-3-methylurea] | 
0.96 nM |  |  |  |  |  |  | CCNC(=O)Nc1ccc(-n2nc3c(c2CN(C)C)c(=O)n(-c2cccc(OC)c2F)c(=O)n3Cc2c(F)cccc2C(F)(F)F)cc1 [Example 6, 1-(4-(3-((dimethylamino)methyl)-5-(2-fluoro-3-methoxyphenyl)-7-(2-fluoro-6-(trifluoromethyl)benzyl)-4,6-dioxo-4,5,6,7-tetrahydro-2H-pyrazolo[3,4-d]pyrimidin-2-yl)phenyl)-3-ethylurea] | 
2.32 nM |  |  |  |  |  |  | CNC(=O)Nc1ccc(-c2cn3c(c2CN(C)C)c(=O)n(-c2ccc(OC)nn2)c(=O)n3Cc2c(F)cccc2F)cc1 [Example 16, 1-(4-(1-(2,6-difluorobenzyl)-5-((dimethylamino)methyl)-3-(6-methoxypyridazin-3-yl)-2,4-dioxo-1,2,3,4-tetrahydropyrrolo[2,1-f][1,2,4]triazin-6-yl)phenyl)-3-methylurea] | 
0.11 nM |  |  |  |  |  |  | CNC(=O)Nc1ccc(-c2cn3c(c2CN(C)C)c(=O)n(-c2cccc(OC)c2F)c(=O)n3Cc2c(F)cccc2F)cc1 [Example 14, 1-(4-(1-(2,6-difluorobenzyl)-5-((dimethylamino)methyl)-3-(2-fluoro-3-methoxyphenyl)-2,4-dioxo-1,2,3,4-tetrahydropyrrolo[2,1-f][1,2,4]triazin-6-yl)phenyl)-3-methylurea] | 

Compound | IC50 (human GnRHr) | Vd/F [1] | AUC [1] | CL/F [1] | half-life [1] | Cmax [1] | MRT [1] | IC50 (rabbit GnRHr)
CNC(=O)Nc1ccc(-n2nc3c(c2CN(C)C)c(=O)n(-c2ccc(OC)nn2)c(=O)n3Cc2c(F)cccc2F)cc1 [Example 9, 1-(4-(7-(2,6-difluorobenzyl)-3-((dimethylamino)methyl)-5-(6-methoxypyridazin-3-yl)-4,6-dioxo-4,5,6,7-tetrahydro-2H-pyrazolo[3,4-d]pyrimidin-2-yl)phenyl)-3-methylurea] | 0.42 nM | 72 ± 25 L/kg | 0.628 ± 0.369 µg·h/mL | 19.9 ± 9.54 L/h/kg | 2.91 ± 1.64 h | 0.146 ± 0.059 µg/mL | 4.67 ± 2.22 h | 0.24 nM
CNC(=O)Nc1ccc(-n2nc3c(c2CN(C)C)c(=O)n(-c2cccc(OC)c2F)c(=O)n3Cc2c(F)cccc2C(F)(F)F)cc1 [Example 8, 1-(4-(3-((dimethylamino)methyl)-5-(2-fluoro-3-methoxyphenyl)-7-(2-fluoro-6-(trifluoromethyl)benzyl)-4,6-dioxo-4,5,6,7-tetrahydro-2H-pyrazolo[3,4-d]pyrimidin-2-yl)phenyl)-3-methylurea] | 0.6 nM |  |  |  |  |  |  | 0.27 nM
